From patent US12686692B2, “KRas G12D inhibitors” (Mirati Therapeutics, Inc., priority 2020, dated 2026)

Tests used:
[1] = tested on: KRas G12D-mediated Phosphorylation of ERK; assay: Inhibition of KRas G12D-mediated Phosphorylation of ERK in AGS cells; type: cell-based; settings: Homo sapiens; AGS cells expressing G12D, 3 hours, phospho-ERK normalized to GAPDH
How it was run: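 AGS cells (endogenous KRas G12D) were treated with compounds for 3 h in 0.5% DMSO, then fixed, permeabilized and immunostained. The phospho-ERK (Thr202/Tyr204) signal was normalized to GAPDH in-cell by infrared detection and expressed as % of DMSO control. IC50 came from a 4-parameter fit.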

KRas G12D [2] = biological target: T1, KRas G12D (Homo sapiens, UniProt P01116, G12D); assay: KRas G12D Surface Plasmon Resonance (SPR) Binding Assay; settings: Biacore T200, biotinylated Avidin-tagged KRAS protein on SA chip, 20 C, 1:1 binding model
How it was run: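 Biotinylated Avi-tagged KRAS G12D was captured on a streptavidin chip; compounds were injected as 3-fold dilution series in HBS-Mg buffer, pH 7.5, with DMSO at 20 C (60 s contact, 120 s dissociation). Binding constants came from 1:1 model fits.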
Target sequence in this assay (P01116 1-188 isoform P01116-2 G12D): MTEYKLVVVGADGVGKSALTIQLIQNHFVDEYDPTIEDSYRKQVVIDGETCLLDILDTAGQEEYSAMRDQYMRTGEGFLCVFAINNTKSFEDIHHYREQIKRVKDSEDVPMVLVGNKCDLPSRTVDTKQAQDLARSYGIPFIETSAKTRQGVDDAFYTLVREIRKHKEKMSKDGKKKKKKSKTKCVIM

KRas G12D [3] = biological target: T1, KRas G12D; assay: KRas G12D Binding Assay (TR-FRET displacement of labeled tracer); design: corresponding to amino acids 1:169, produced at Array BioPharma; biotin (protein is biotinylated); settings: TR-FRET displacement of Cy5 labelled tracer, biotinylated GDP-loaded KRAS G12D (aa 1:169), 60 minute incubation at 22° C.
How it was run: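 Biotinylated GDP-loaded human KRAS G12D (aa 1–169) incubated with Cy5 tracer, Eu-streptavidin and compound (2% DMSO final) in 50 mM HEPES pH 7.5, 5 mM MgCl2, 0.005% Tween-20, 1 mM DTT, 60 min at 22 °C. TR-FRET ratio converted to percent of control; IC50 at 50 POC from 4-parameter logistic fit.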
Target sequence in this assay (P01116 1-169 isoform P01116-2 G12D): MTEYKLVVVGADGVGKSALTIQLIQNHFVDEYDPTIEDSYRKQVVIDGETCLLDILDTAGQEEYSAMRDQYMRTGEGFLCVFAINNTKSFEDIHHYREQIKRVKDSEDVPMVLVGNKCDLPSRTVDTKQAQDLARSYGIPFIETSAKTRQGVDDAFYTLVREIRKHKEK

Row | SMILES | IC50 [1] | Kd (KRas G12D [2]) | IC50 (KRas G12D [3])
1 | Fc1ccc2cccc(N3CCc4c(nc(OCC56CCCN5CCC6)nc4N4C[C@H]5CC[C@@H](C4)N5)C3)c2c1Cl [Example 62, 4-((1R,5S)-3,8-diazabicyclo[3.2.1]octan-3-yl)-7-(8-chloro-7-fluoronaphthalen-1-yl)-2-((tetrahydro-1H-pyrrolizin-7a(5H)-yl)methoxy)-5,6,7,8-tetrahydropyrido[3,4-d]pyrimidine] | 1.94 µM | 0.0081 µM | 0.001 µM
2 | FC1CN2CCCC2(COc2nc3c(c(N4CC5CC(F)C(C4)N5)n2)CCN(c2cccc4cccc(Cl)c24)C3)C1 (racemic) [Example 44, 7-(8-chloronaphthalen-1-yl)-4-(6-fluoro-3,8-diazabicyclo[3.2.1]octan-3-yl)-2-((2-fluorotetrahydro-1H-pyrrolizin-7a(5H)-yl)methoxy)-5,6,7,8-tetrahydropyrido[3,4-d]pyrimidine] | 9.03 µM | 0.0439 µM | 0.0435 µM
3 | CN1CCC[C@H]1COc1nc2c(c(N3C[C@H]4CC[C@@H](C3)N4)n1)CCN(c1cncc3cccc(Cl)c13)C2 [Example 58, 4-((1R,5S)-3,8-diazabicyclo[3.2.1]octan-3-yl)-7-(5-chloroisoquinolin-4-yl)-2-(((S)-1-methylpyrrolidin-2-yl)methoxy)-5,6,7,8-tetrahydropyrido[3,4-d]pyrimidine] | > 16.7 µM | 0.438 µM | 0.283 µM
4 | CN1CCC[C@H]1COc1nc2c(c(N3C[C@@H]4C[C@H](O)[C@H](C3)N4)n1)CCN(c1cc(O)cc3ccccc13)C2 (single isomer, unassigned) [Example 55] | 4.88 µM | 38.7 µM | 0.775 µM
5 | CN1CCC[C@H]1COc1nc2c(c(N3C[C@H]4CC[C@@H](C3)N4)n1)CCN(c1cccc3ccc(F)c(Cl)c13)C2 [Example 65, 4-((1R,5S)-3,8-diazabicyclo[3.2.1]octan-3-yl)-7-(8-chloro-7-fluoronaphthalen-1-yl)-2-(((S)-1-methylpyrrolidin-2-yl)methoxy)-5,6,7,8-tetrahydropyrido[3,4-d]pyrimidine] | > 16.7 µM | 0.0182 µM | 0.0152 µM
6 | CN1CCC[C@H]1COc1nc2c(c(N3C[C@H]4C[C@@H](CC#N)[C@@H](C3)N4)n1)CCN(c1cccc3cccc(Cl)c13)C2 [Example 40, 2-((1R,5S,6S)-3-(7-(8-chloronaphthalen-1-yl)-2-(((S)-1-methylpyrrolidin-2-yl)methoxy)-5,6,7,8-tetrahydropyrido[3,4-d]pyrimidin-4-yl)-3,8-diazabicyclo[3.2.1]octan-6-yl)acetonitrile] | > 16.7 µM | 0.957 µM | 0.0639 µM
7 | CN1CCC[C@H]1COc1nc2c(c(N3C[C@H]4CC[C@@H](C3)N4)n1)CCN(c1cc(O)cc3ccccc13)C2 [Example 1, 4-(4-((1R,5S)-3,8-diazabicyclo[3.2.1]octan-3-yl)-2-(((S)-1-methylpyrrolidin-2-yl)methoxy)-5,8-dihydropyrido[3,4-d]pyrimidin-7(6H)-yl)naphthalen-2-ol] | 2.35 µM | 0.11 µM | 0.0489 µM
8 | Cc1cccc(N2CCc3c(nc(OCC45CCCN4CCC5)nc3N3C[C@H]4CC[C@@H](C3)N4)C2)c1C(F)(F)F [Example 64, 4-((1R,5S)-3,8-diazabicyclo[3.2.1]octan-3-yl)-7-(3-methyl-2-(trifluoromethyl)phenyl)-2-((tetrahydro-1H-pyrrolizin-7a(5H)-yl)methoxy)-5,6,7,8-tetrahydropyrido[3,4-d]pyrimidine] | > 16.7 µM | 0.0673 µM | 0.013 µM
9 | CN1CCC[C@H]1COc1nc2c(c(N3C[C@H]4CC[C@@H](C3)N4)n1)CCN(c1cccc3ccc(F)cc13)C2 [Example 72, 4-((1R,5S)-3,8-diazabicyclo[3.2.1]octan-3-yl)-7-(7-fluoronaphthalen-1-yl)-2-(((S)-1-methylpyrrolidin-2-yl)methoxy)-5,6,7,8-tetrahydropyrido[3,4-d]pyrimidine] | > 16.7 µM | 0.923 µM | 0.226 µM
